Among the data in patent US12180226B2, “Spirotricycle RIPK1 inhibitors and methods of uses thereof” (Merck Sharp & Dohme LLC, priority 2021, dated 2024) are EC50 values, retold here.

SMILES strings stand for the structures. Where a name gives a salt, the structure may show the parent alone. Bounds are passed on as bounds.

The target in this experiment is RIPK1 (recombinant GST-RIPK1 kinase domain, residues 1-327) (Homo sapiens (Human), UniProt Q13546). The experiment in a line: RIPK1-ADP-Glo Enzymatic Assay. It is filed as biochemical. The settings on record: ADP-Glo; 25 nM GST-RIPK1, 300 μM ATP; assay lower limit ~25 nM; read-out: RIPK1 V0 Ec50. In a few lines: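 ADP-Glo luminescence read after 150 min kinase reaction (300 μM ATP, 3 μM dephosphorylated MBP) using 25 nM Sf21-made GST-kinase domain (1-327), preincubated 30 min with compound. HEPES pH 7.3, 1% DMSO; ten-point 1:3 series from 100000 nM, EC50 via four-parameter sigmoidal regression.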
RIPK1 (recombinant GST-RIPK1 kinase domain, residues 1-327), sequence (Q13546 1-327): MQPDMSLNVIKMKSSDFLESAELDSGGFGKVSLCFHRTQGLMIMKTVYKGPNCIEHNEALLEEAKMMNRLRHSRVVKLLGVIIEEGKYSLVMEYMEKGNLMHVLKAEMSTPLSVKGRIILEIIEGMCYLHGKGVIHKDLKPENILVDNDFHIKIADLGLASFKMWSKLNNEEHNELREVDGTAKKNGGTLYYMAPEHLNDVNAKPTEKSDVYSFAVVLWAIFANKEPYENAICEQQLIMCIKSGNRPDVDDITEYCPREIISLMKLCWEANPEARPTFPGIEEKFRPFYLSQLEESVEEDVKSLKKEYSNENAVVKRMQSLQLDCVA
For orientation: ADP-Glo first removes unused ATP, then detects ADP through luciferase.

As to `O=C1N2[C@@H](CC[C@H]2c2ccccc2)OC12CCN(c1cc(C3CC3)ccn1)CC2` [Example 11.22, (5′S,7a′R)-1-(4-cyclopropylpyridin-2-yl)-5′-phenyltetrahydro-3′H-spiro[piperidine-4,2′-pyrrolo[2,1-b][1,3]oxazol]-3′-one], the EC50 (in general, the concentration at which the effect is half-maximal) stood at 761 nM. With `N#Cc1ccc(N2CCC3(CC2)O[C@@H]2CC[C@@H](c4cc(F)cc(F)c4)N2C3=O)cc1-n1ccnn1` [Example 4.70, 4-[(5′S,7a′R)-5′-(3,5-difluorophenyl)-3′-oxotetrahydro-1H,3′H-spiro[piperidine-4,2′-pyrrolo[2,1-b] [1,3]oxazol]-1-yl]-2-(1H-1,2,3-triazol-1-yl)benzonitrile], the concentration giving a half-maximal response (EC50) came to 54.3 nM.

Consider `O=C(c1cc(F)ccc1F)N1CCC2(CC1)O[C@@H]1CC[C@@H](c3cc(F)cc(F)c3)N1C2=O` [Example 5.1, (5′S,7a′R)-1-(2,5-Difluorobenzoyl)-5′-(3,5-difluorophenyl)tetrahydro-3′H-spiro[piperidine-4,2′-pyrrolo[2,1-b]oxazol]-3′-one], for which the EC50 was less than 25 nM. The same measure for `O=C(c1cccc(F)c1)N1CCC2(CC1)O[C@@H]1CC[C@@H](c3ccc(F)cc3)N1C2=O` [Example 7.1, (5′S,7a′R)-1-(3-Fluorobenzoyl)-5′-(4-fluorophenyl)tetrahydro-3′H-spiro[piperidine-4,2′-pyrrolo[2,1-b]oxazol]-3′-one]: 121 nM; for `O=C1N2[C@@H](CC[C@H]2c2cc(F)cc(F)c2)OC12CCN(c1ncc(F)c3ncnn13)CC2` [Example 4.90, (5′S,7a′R)-5′-(3,5-difluorophenyl)-1-(8-fluoro-[1,2,4]triazolo [1,5-c]pyrimidin-5-yl)tetrahydro-3′H-spiro[piperidine-4,2′-pyrrolo[2,1-b]oxazol]-3′-one, TFA salt]: 380 nM.

In the case of `O=C(c1cc2ccccn2c1)N1CCC2(CC1)O[C@@H]1CC[C@@H](c3cc(F)cc(F)c3)N1C2=O` [Example 5.73, (5′S,7a′R)-5′-(3,5-difluoro-phenyl)-1-(indolizine-2-carbonyl)tetrahydro-3′H-spiro[piperidine-4,2′-pyrrolo[2,1-b]oxazol]-3′-one], the EC50 is less than 25 nM. In the case of `CC1CN(C(=O)c2ccccc2)CCC12O[C@@H]1CC[C@@H](c3cc(F)cc(F)c3)N1C2=O` (stereo partly drawn) [Example 6.109, (5′S,7a′R)-1-(benzene-carbonyl)-5′-(3,5-difluorophenyl)-3-methyltetrahydro-3′H-spiro[piperidine-4,2′-pyrrolo[2,1-b][1,3]-oxazol]-3′-one], the EC50 is less than 25 nM.

As to `O=C(c1ccccn1)N1CCC2(CC1)O[C@@H]1CC[C@@H](c3cc(F)cc(F)c3)N1C2=O` [Example 6.101, (5′S,7a′R)-5′-(3,5-difluorophenyl)-1-(pyridine-2-carbonyl) tetrahydro-3′H-spiro [piperidine-4,2′-pyrrolo[2,1-b][1,3]-oxazol]-3′-one], the concentration for a half-maximal effect (EC50) was determined as 56.9 nM.

Take `O=C(c1ccccc1)N1CCC2(CC1)O[C@@H]1CC[C@@H](c3ccc(F)cc3F)N1C2=O` [Example 17.14, (5′S,7a′R)-1-(benzenecarbonyl)-5′-(2,4-difluorophenyl)tetrahydro-3′H-spiro[piperidine-4,2′-pyrrolo[2,1-b][1,3]oxazol]-3′-one]: the 50% effective concentration (EC50) was less than 25 nM. The same measure for `CCOc1cnc(N2CCC3(CC2)O[C@@H]2CC[C@@H](c4ccccc4)N2C3=O)n2ncnc12` [Example 19.7, (5′S,7a′R)-1-(8-ethoxy[1,2,4]triazolo [1,5-c]pyrimidin-5-yl)-5′-phenyltetrahydro-3′H-spiro[piperidine-4,2′-pyrrolo[2,1-b][l,3]oxazol]-3′-one]: 25 nM. The same measure for `N#Cc1ccc(N2CCC3(CC2)O[C@@H]2CC[C@@H](c4ccccc4)N2C3=O)n2ncc(-c3ncco3)c12` [Example 4.181, 3-(1,3-oxazol-2-yl)-7-[(5′S,7a′R)-3′-oxo-5′-phenyltetrahydro-1H,3′H-spiro[piperidine-4,2′-pyrrolo[2,1-b] [1,3]oxazol]-1-yl]pyrazolo[1,5-a] pyridine-4-carbonitrile]: 110 nM.
